Laboratory results taken from patent US12194082B2, “Compositions and methods for treatment of homocystinuria” (THE REGENTS OF THE UNIVERSITY OF COLORADO, priority 2016, dated 2025).

What was measured:
[1] = system: homocysteine, cystathionine, and cysteine; assay: Long-term administration of PEGylated htCBS C15S conjugates in HO mice: plasma metabolites; assay type: in vivo; conditions: 7.5 mg/kg/day SC, 5 daily injections per bout
Procedure: In one set of experiments, htCBS C15S PEGylated with either ME-200MA0B, ME-200GS, GL4-400MA, or ME-400MA was evaluated. Six groups of HO mice were used to conduct these studies: two groups received 200MA0B PEG-htCBS C15S (Groups 1 and 3), one group received 20NHS PEG-htCBS C15S (Group 4), one group received GL4-400MA PEG-htCBS C15S (Group 5), and two groups received 400MA PEG-htCBS C15S (Group 6 and 7). Both male and female HO mice were used (total n=6 to 8 mice per group) in these studies.
For Group 1, the mice received 2 bouts of 5 daily subcutaneous injections of 200MA0B PEG-htCBS C15S on days 1, 2, 3, 4, and 5 (week 1) and days 15, 16, 17, 18, and 19 (week 3). The dose for this experiment was 5 mg/kg/day. A saline control group (Group 2) was included in this experiment. All other groups received 3 bouts of 5 daily subcutaneous injections on days 1, 2, 3, 4, and 5 (week 1); days 15, 16, 17, 18, and 19 (week 3); and days 29, 30, 31, 32 and 33 (week 5). The dose for these experiments was 7.5 mg/kg/day.
In a separate set of experiments, htCBS C15S PEGylated with ME-200MA0B or ME050GS was evaluated. Two groups of male and female HO mice (1M/5F) received 3 bouts of 5 daily subcutaneous injections of either 200MA0B PEG-htCBS C15S (Group 8) or 050GS PEG-htCBS (Group 9) on days 1, 2, 3, 4, and 5 (week 1); days 15, 16, 17, 18, and 19 (week 3); and days 29, 30, 31, 32 and 33 (week 5). The dose was 7.5 mg/kg/day.
In all sets of experiments, each 5-day dosing cycle was followed by a 10-day “washout period”. Blood was sampled using a submandibular lancet on Monday, Wednesday, and Friday of the dosing weeks (1, 3, and 5) and on the first day (Monday) of each 10-day washout period. All blood sampling procedures and subcutaneous injections were conducted at 3 P.M. to avoid artifacts due to diurnal variations. On days where both blood sampling and injection were conducted the blood sampling procedure was conducted prior to enzyme administration.
The pharmacodynamic response in HO mice to each PEGylated htCBS C15S conjugate was assessed for each bout of dosing by quantitating plasma levels of metabolites homocysteine, cystathionine, and cysteine, which are associated with the transsulfuration pathway, at baseline and after treatment. Quantification was performed by stable-isotope-dilution liquid chromatography mass spectrometry (LC/MS) as described in Example 1. The maximal percent change of homocysteine, cystathionine, and cysteine was calculated compared to baseline values for each dose week.

[2] = system: I278T −/− homozygous mice; assay: Facial alopecia in I278T mice; assay type: in vivo, mouse; conditions: 3 times per week, start W24-W28, up to about 1 year
Procedure: 3 W old mice not showing any signs of facial alopecia were split into 2 groups. The first group (n=3 males) was injected with 7.5 mg/kg three times per week with 200MA0B PEG-htCBS C15S for a period of 6 weeks. Physical look was recorded before the experiment and monitored weekly, then bi-weekly after the 6 W injection regimen. Metabolite levels were checked before the experiment and 24 hours after the last injection, i.e. after the 6 W injection regimen.
The second group (n=3; 2 males, 1 female) was continuously injected with 7.5 mg/kg of 200MA0B PEG-htCBS C15S administered subcutaneously from 3 W of age until 41 weeks of age. Weight was initially monitored weekly. Physical look was recorded before the experiment and was monitored weekly or bi-weekly after the initial 6 W injection regimen. Metabolite levels were checked before the experiment and 24 hours after the last injection of initial 6 W injection regiment and then followed weekly or bi-weekly.
The I278T mice, which were at least 120D (W17) old and had visible, fully developed facial alopecia, were split into 2 groups. […] Metabolite levels were determined prior to the treatment initiation and measured during the study 24 hours after the injection, and weight and physical look were initially monitored weekly, and later bi-weekly.

[3] = system: I278T mice; assay: DEXA bone mineralization and body composition in I278T mice; assay type: in vivo, mouse; conditions: 7.5 mg/kg SC 3x/week from 6 to 13 months of age
Procedure: A PIXImusII DEXA scanner (GE Lunar Medical Systems) specifically designed for scanning small animals such as mice was used for DEXA analysis. This machine enabled quick and efficient determination of the body composition (lean, fat mass, and bone density) of a mouse before terminal tissue extraction procedures. Mice were fasted for 4 hours prior to the DEXA measurement to remove food from the gastro-intestinal tract. Mice were then anesthetized using IP bolus injection of 60 mg/kg ketamine and 15 mg/kg xylazine and placed on a tray in the DEXA machine. After the measurement was done (3˜5 minutes), the mice were removed from the DEXA machine and used in terminal procedures, such as tissue extractions.
The bone mineral density (BMD) and bone mineral content (BMC) were analyzed by DEXA for three groups of I278T mice: +/− healthy heterozygous controls (n=10M+11F), −/− affected homozygous I278T controls (n=6M+8F), and 20NHS PEG-htCBS C15S-treated I278T mice (n=6M+6F). The 20NHS PEG-htCBS C15S (C15S/ME-200GS)-treated I278T mice were administered 7.5 mg/kg subcutaneously (SC) 3 times per week from the age of 6 months up to the age of 13 months. FIG. 17A, FIG. 17B, FIG. 17C, FIG. 17D, and FIG. 17E are graphs comparing BMD (g/cm^2), BMC (g), total mass (g), lean mass (g), and fat content (%), respectively, among the three groups of mice. […]

## 20NHS PEG-htCBS C15S: htCBS C15S PEGylated with ME-200GS PEG (20 kDa linear NHS ester-activated PEG)
[1]
  cystathionine, Percent Increase at Peak, Week 1: 676%
  cystathionine, Percent Increase at Peak, Week 3: 492%
  cystathionine, Percent Increase at Peak, Week 5: 432%
  cysteine, Percent increase at Peak, Week 1: 59%
  cysteine, Percent increase at Peak, Week 3: 61%
  cysteine, Percent increase at Peak, Week 5: 51%
  total Hcy, Percent Decrease at Trough, Week 1: 77%
  total Hcy, Percent Decrease at Trough, Week 3: 70%
  total Hcy, Percent Decrease at Trough, Week 5: 66%
[1]; listed as ME-200GS
  total Hcy, Percent Decrease at Trough, Week 1: 77%
  total Hcy, Percent Decrease at Trough, Week 3: 70%
  total Hcy, Percent Decrease at Trough, Week 5: 66%
[2]
  animals responding (reversal of fully developed facial alopecia): 4 out of 4
[3]
  bone mineralization (BMD) vs healthy heterozygous controls: indistinguishable
  osteoporosis and body composition (DEXA): prevented profound osteoporosis and improved body composition
